Consider three molecules from paper PMC4942611, “Promising Tools in Prostate Cancer Research: Selective Non-Steroidal Cytochrome P450 17A1 Inhibitors” (Scientific Reports, 2016).

The structures appear in SMILES notation. Some results are limits rather than exact numbers.

In assay [1] the target is T1, human CYP17A1 (Homo sapiens, UniProt P05093).
T1 construct: bearing a truncation of the N-terminal helix; made in house
T1 sequence (P05093 with tags, fused parts or gaps limits assumed): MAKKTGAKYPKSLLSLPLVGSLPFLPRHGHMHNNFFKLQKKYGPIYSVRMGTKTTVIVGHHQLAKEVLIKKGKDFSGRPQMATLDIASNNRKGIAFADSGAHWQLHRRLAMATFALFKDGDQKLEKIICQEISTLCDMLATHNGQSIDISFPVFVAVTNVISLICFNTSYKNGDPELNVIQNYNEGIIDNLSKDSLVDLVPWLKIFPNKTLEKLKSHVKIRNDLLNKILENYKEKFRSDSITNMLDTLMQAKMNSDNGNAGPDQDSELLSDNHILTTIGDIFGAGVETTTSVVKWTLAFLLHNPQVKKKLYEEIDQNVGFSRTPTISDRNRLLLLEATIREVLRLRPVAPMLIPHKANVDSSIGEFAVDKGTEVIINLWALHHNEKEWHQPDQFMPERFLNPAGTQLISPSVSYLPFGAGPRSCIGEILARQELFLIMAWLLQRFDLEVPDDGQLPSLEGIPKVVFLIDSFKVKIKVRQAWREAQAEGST
Description: Progesterone 17α-hydroxylase inhibition with purified CYP17A1. It is filed as biochemical. Particulars: for IC50: conversion of PRO to 17-OH-PRO, 10 μM progesterone, mean over 3 measurements ± standard error. The procedure:
Purified cytochrome P450 17A1 (50 nmol) was incubated with truncated human cytochrome P450 reductase[48] and rat cytochrome b5 in a 1:4:0 or 1:4:4 ratio for hydroxylase and 17,20-lyase reactions, respectively. […] Reactions were initiated upon addition of 25 mM NADPH as the electron source. The hydroxylated product was quantified after HPLC using an UV detector and analyzed as previously published. The 17,20-lyase assay was performed similarly substituting 1.2 μM of 17α-hydroxypregnenolone as the substrate and inhibitor concentrations of 0–500 nM. The dehydroepiandrosterone product was quantitated using a coupled GC/MS method.

Assay [2] has as its target T1, human CYP17A1. Nature of the assay: UV-VIS ligand binding assay (spectral titration) with purified CYP17A1. Particulars: 100 nM purified CYP17A1, mean over 2 measurements ± standard error. The procedure: Direct coordination of nitrogen-containing heterocycles to the haem iron in the active site of cytochrome P450 enzymes causes a shift of the Soret peak λmax to higher wavelengths. Thus, UV-visible absorbance spectra were recorded as purified CYP17A1 was titrated with the 19 hit compounds. Addition of compounds 1–7 (cf. Fig. 2 and S3) yielded characteristic shifts in λmax from 417 nm to as high as 427 nm, typical of direct coordination to the haem iron. Plots of the changes in absorbance as a function of concentration can be used to evaluate ligand binding affinity. […] Compounds 6 and 7 have substantial intrinsic absorbance overlapping the range of the protein spectral change. Therefore the binding constants could not be determined for these latter two compounds.
Human CYP17A1 bearing a truncation of the N-terminal helix and a 4x histidine tag on the C-terminus was expressed and purified as previously reported.
Ligand binding was measured based on a change in UV-VIS absorbance (ΔA) upon ligand addition. Purified recombinant human cytochrome P450 enzymes (100 nM) were titrated with ligands dissolved in DMSO in 5 cm path length cuvettes. CYP17A1 and CYP21A2 were prepared in 50 mM Tris-HCl, pH 7.4, 500 mM NaCl, 20% (v/v) glycerol, and 100 mM glycine. The buffer used to prepare CYP21A2 also contained 50 mM DTT. CYP3A4 and CYP2D6 were prepared in 50 mM potassium phosphate, pH 7.4, 250 mM NaCl, 20% (v/v) glycerol and 1 mM EDTA. In each case, heteroatom coordination to the haem iron yields an increase in absorbance at ~420 nm and a corresponding decrease at ~390 nm. The apparent binding constant (Kd) and the maximum spectral change (ΔAmax) were calculated from a nonlinear least-squares regression fit to the tight binding equation (2) using GraphPad Prism 6.03.

For orientation: IC50 means the point on the concentration scale where inhibition reaches its midpoint. A higher IC50 goes with lower potency. Usually Kd stands for the concentration at which binding is half-saturated. Higher therefore signals weaker binding. Molecule `Cc1ccc(-c2csc(-c3cccnc3)n2)c(C)c1` [Compound 1] returned an IC50 at human CYP17A1 [1] of 230 ± 20 nM. Also, the “Potency for 17α-hydroxylase inhibition relative to abiraterone (times less potent)” value at human CYP17A1 [1] (recombinant human CYP17A1) was 2–3 times. This molecule also showed a Kd at human CYP17A1 [2] of less than 100 nM.

Turning to `CCCn1nnc2cc(-c3cc(-c4ccncc4)c(C#N)c(N)n3)ccc21` [Compound 2], the IC50 against human CYP17A1 [1] stood at 130 ± 10 nM. Further, the Kd on human CYP17A1 [2] was less than 100 nM.

On human CYP17A1 [1], `C[C@]12CC[C@H](O)CC1=CC[C@@H]1[C@@H]2CC[C@]2(C)C(c3cccnc3)=CC[C@@H]12` [abiraterone, reference compound] returned an IC50 of 92 ± 4 nM. The molecule also had a Kd at human CYP17A1 [2] of less than 100 nM.
